According to patent US20240156764A1, “INHIBITION OF URACIL DNA GLYCOSYLASE IN THE OPEN CONFORMATION” (CASE WESTERN RESERVE UNIVERSITY, priority 2022, published 2024):

Key:
[1] = test system: A:8oxoG (MPG, MUTYH) repair in MCF-7 cells; assay: Host-cell reactivation assay, A:8oxoG reporter, MCF-7; format: cell-based, human; details: ATA 2.5 μM
human UDG [2] = biological target: T1, human UDG (Homo sapiens, UniProt P13051); assay: High-throughput screening assay: UDG-mediated unquenching of fluorescent uracil DNA hairpin; format: biochemical; design: 6xHis; purchased XTAL Biostructures; host or cells: Sf9 insect cells; details: purified human UDG, initial value, read-out: IC50 for the purified human UDG (un-quenching of fluorescence from the DNA hairpin)
Description: FIGS. 1(A-D) illustrate high-Throughput Small-Molecule Screening for UDG Inhibitors. A: 60 min reaction time-course experiment was performed to measure human UDG enzymatic activity in the presence of 10 nM UDG (red line) or absence of UDG (black line) uracil DNA hairpin (25 nM) only control. Each data point is the average of 12 reaction replicates from a 384-well plate. Error bars represent the standard deviation from the mean. B: Two independent screens using a plate of 320 compounds were plotted on the same graph with the trend line showing a positive correlation between the two runs with an R2 value of 0.711 using y=mx+b. […] Normalized percent activity of UDG-mediated unquenching of fluorescence DNA hairpin is shown. […] Control condition denotes RFU-UDG AVG (DNA alone no protein); the average relative fluorescence unit (RFU) value was computed using a set of 32 replicate wells per screening plate. […]
The collection of biologically active molecules was compiled from the LOPAC library (Sigma Aldrich) and Bioactive Compound Library (Selleck Chemicals). […] After 40 min of incubation at room temperature (˜23° C.), fluorescence measurements were done using an Enspire plate reader (Perkin Elmer) at an excitation wavelength of 485 nm and emission wavelength of 520 nm. Compound performance from per plate was calculated and normalized accounting for background fluorescence by the following equation: […]
Target sequence in this assay (P13051 1-304 isoform P13051-2): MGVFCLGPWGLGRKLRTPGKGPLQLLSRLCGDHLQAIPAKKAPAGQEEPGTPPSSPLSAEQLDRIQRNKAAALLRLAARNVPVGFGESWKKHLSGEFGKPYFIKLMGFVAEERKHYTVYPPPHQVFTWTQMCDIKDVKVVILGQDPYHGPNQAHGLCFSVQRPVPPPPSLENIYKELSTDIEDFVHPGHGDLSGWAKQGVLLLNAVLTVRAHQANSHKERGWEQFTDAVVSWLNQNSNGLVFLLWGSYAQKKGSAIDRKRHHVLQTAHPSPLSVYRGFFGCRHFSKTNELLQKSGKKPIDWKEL

human UDG [3] = biological target: T1, human UDG; assay: UDG protein thermal shift with Sypro orange dye; format: binding; details: 100 μM ATA
Description: The data for thermophoresis was recorded at 20° C. using the blue LED at 20% and IR-Laser at 40%. The isotherm derived from the raw data and fitted according to the law of mass action. […] Then 2 μL of 10× Sypro dye and 2 μL of ddH20 (Applied biosystems cat #4461141) were added. Monitoring of fluorescence took place for 2 hr (Bioraid CFX96, Hex filter, 25-97° C., 1.6° C./2 min). Negative (−) derivative RFU raw data and plots from the machine were obtained and analyzed. […] Melting temperature (Tm) value was taken directly from the midpoint on the −dRFU/dt vs. temperature graph. Each point on the graph represents an average of three data sets. Y error bars represent the standard deviation.
FIGS. 10(A-D) illustrate UDG thermal shift. A: Uracil DNA hairpin stabilizes UDG protein. […] Melting temperature (Tm) values were taken directly from lowest peak point on the negative dRFU/dt over temperature plots. B: (with uracil DNA): Parallel set of wells on the same plate included uracil-DNA harpin (final […]). Each plate was incubated 60 min at room temperature before the monitoring of fluorescence took place about 2 hr (Biorad CFX96, Hex filter, 25° C.-97C, 1.6° C./2 min). […] Each plate was incubated 60 min at room temperature before the monitoring of fluorescence took place about 2 hr (Biorad CFX96, Hex filter, 25° C.-97° C., increment of 1.6° C./2 min). […]
Target sequence in this assay (P13051 94-313 limits assumed): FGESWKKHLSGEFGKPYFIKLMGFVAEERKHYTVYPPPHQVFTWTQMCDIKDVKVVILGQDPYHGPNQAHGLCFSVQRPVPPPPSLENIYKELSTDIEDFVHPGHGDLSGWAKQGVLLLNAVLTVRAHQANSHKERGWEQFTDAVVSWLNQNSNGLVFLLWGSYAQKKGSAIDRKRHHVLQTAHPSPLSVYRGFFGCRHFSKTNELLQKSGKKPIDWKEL

For O=C(O)C1=CC(=C(c2ccc(O)c(C(=O)O)c2)c2ccc(O)c(C(=O)O)c2)C=CC1=O [ATA, aurintricarboxylic acid], the “inhibition of repair of A:8oxoG basepair” value [1] was “not inhibiting”, the IC50 (human UDG [2]) was 40 nM and the “average maximum Tm change for UDG” value (human UDG [3]; absence of uracil containing DNA) was roughly 3.0 °C. The “change of Tm of UDG protein” value (human UDG [3]; with 1.0 mM uracil DNA hairpin) was “did not further change the Tm”.
